According to patent US20220213052A1, “INHIBITORS OF RNA-BINDING PROTEINS, COMPOSITIONS THEREOF, AND THERAPEUTIC USES THEROF” (The University of North Carolina at Chapel Hill, priority 2019, published 2022):
Like-named read-outs stand apart in the source and are kept apart here.

Tests used:
[1] = biological target: T1, RNA-binding protein Lin-28 homolog B (LIN28B) (Homo sapiens, UniProt Q6ZN17); assay: LIN28B FP assay
T1 sequence (Q6ZN17 1-250): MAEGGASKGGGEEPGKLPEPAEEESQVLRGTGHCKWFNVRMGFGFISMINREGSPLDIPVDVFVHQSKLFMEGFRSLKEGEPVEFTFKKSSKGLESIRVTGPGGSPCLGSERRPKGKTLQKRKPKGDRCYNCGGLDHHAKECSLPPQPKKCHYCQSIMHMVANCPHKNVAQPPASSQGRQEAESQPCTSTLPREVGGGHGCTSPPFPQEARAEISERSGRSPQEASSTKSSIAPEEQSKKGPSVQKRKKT
Procedure: (§1) With the FP assay of HuR-Msi1ARE binding, the inhibition of the HuR-Msi1ARE interaction by various compounds of the present technology was assessed. Similar FP assays for Musashi 2 (Msi2) and for RNA-binding protein Lin-28 homolog B (LIN28B) were also performed on various compounds of the present technology. The results of such assays for HuR are provided in Table 1 alongside the compound structures as well as ID numbers for ease of reference; the results of such assays for Msi1, Msi2, and LIN28B are provided in Table 2.

[2] = biological target: T2, full-length human HuR protein (Homo sapiens, UniProt Q15717); assay: FP assay of HuR-Msi1 ARE binding inhibition; conditions: HuR-Msi1 ARE interaction; read-out: HuR Ki via FP assay
T2 construct: full-length human HuR protein was produced by the KU COBRE-PSF Protein Purification Group; made in house
T2 sequence (Q15717 whole entry): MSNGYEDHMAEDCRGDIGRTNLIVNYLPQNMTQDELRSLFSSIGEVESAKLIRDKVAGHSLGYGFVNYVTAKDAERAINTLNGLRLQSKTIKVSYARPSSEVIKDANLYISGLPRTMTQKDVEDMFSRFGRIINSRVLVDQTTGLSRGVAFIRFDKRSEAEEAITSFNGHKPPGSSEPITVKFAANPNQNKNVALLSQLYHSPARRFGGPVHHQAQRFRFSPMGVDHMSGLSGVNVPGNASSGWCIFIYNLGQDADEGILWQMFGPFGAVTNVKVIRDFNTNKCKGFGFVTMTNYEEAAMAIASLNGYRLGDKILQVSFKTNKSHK
Source text: A fluorescence polarization (FP)-based binding assay was utilized to assess the inhibition of HuR protein interaction with the ARE site of Msi1 mRNA (“HuR-Msi1^ARE”) by compounds of interest. Briefly, full-length human HuR protein was produced by the KU COBRE-PSF Protein Purification Group and Bcl2, Msi1 and XIAP mRNA sequences (16 nt) were designed based on literature precedent^23,24,31,32. Fluorescein labeled RNAs were purchased from Dharmacon with the following sequences: Msi1 RNA: 5′-[…]-3′-fluorescein; Bcl-2 RNA: 5′-[…]-3′-fluorescein; XIAP RNA: 5′-[…] UGUC-3′-fluorescein, and a 16-nt degenerative RNA with 3′-fluorescein label was used as a negative control.
as §1

[3] = biological target: Musashi 2 (Msi2) (Homo sapiens, UniProt Q96DH6); assay: Msi2 FP assay; type: binding
Chain of Musashi 2 (Msi2) (Q96DH6 whole entry, species assumed): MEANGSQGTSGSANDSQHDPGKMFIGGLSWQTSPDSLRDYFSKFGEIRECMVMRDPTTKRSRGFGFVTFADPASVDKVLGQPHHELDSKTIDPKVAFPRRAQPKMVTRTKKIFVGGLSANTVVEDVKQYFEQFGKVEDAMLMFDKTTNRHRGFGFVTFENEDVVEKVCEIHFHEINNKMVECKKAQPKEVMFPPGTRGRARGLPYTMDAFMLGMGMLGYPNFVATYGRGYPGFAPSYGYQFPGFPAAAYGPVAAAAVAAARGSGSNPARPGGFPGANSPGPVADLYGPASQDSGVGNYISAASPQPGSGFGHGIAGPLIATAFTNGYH
Procedure: as §1

[4] = biological target: Msi1 (Homo sapiens, UniProt O43347); assay: Msi1 FP assay; type: binding
Chain of Msi1 (O43347 whole entry, species assumed): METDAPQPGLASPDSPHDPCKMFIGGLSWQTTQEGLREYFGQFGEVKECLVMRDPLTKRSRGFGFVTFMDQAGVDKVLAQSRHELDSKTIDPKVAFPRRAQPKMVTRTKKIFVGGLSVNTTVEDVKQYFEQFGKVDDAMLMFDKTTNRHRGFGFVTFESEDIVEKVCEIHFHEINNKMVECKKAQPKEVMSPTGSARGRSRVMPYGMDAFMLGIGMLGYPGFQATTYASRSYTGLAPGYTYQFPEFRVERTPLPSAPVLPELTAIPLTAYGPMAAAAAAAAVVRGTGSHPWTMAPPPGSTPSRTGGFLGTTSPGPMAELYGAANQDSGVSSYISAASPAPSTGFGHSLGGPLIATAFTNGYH
Procedure: as §1

[5] = tested on: triple-negative breast cancer cell line MDA-MB-231; assay: Cytotoxicity assay (WST-8), MDA-MB-231; type: cell-based; conditions: Homo sapiens, 96 h incubation
Procedure: (§2) The cytotoxicity of various compounds of the present technology in several cancer cell lines (pancreatic cancer cell line MIAPaCa-2, triple-negative breast cancer cell line MDA-MB-231, and colon cancer cell lines HCT116, HCT116 β/W, and RKO) was assessed by a cytotoxicity assay. Cells were seeded in 96-well culture plates (3,000-5,000 cells/well) and treated with titrated compounds in triplicate. After 96 h incubation, cell growth medium was removed and proliferation reagent WST-8 (Sigma) was added to each well and incubated at 37° C. for 1-3 h. Absorbance was then measured with a plate reader at 450 nm with correction at 650 nm. The results were expressed as the percentage of absorbance of treated wells versus that of vehicle control. IC50, the drug concentration causing 50% growth inhibition, was calculated via sigmoid curve fitting using GraphPad Prism 5.0. The results for those compounds tested against MIAPaCa-2 and MDA-MB-231 are provided in Table 1; the results for those compounds tested against colon cancer cell lines HCT116, HCT116 β/W, and RKO are provided in Table 3.

[6] = tested on: colon cancer cell line HCT116; assay: Cytotoxicity assay (WST-8), HCT116; type: cell-based; conditions: Homo sapiens, HCT-116, 96 h incubation
Procedure: as §2

[7] = tested on: colon cancer cell line HCT116 β/W; assay: Cytotoxicity assay (WST-8), HCT116 β/W; type: cell-based; conditions: Homo sapiens, HCT-116, 96 h incubation
Procedure: as §2

[8] = tested on: colon cancer cell line RKO; assay: Cytotoxicity assay (WST-8), RKO; type: cell-based; conditions: 96 h incubation
Procedure: as §2

[9] = tested on: colon cancer cell line SW480; assay: Cytotoxicity assay (WST-8), SW480; type: cell-based; conditions: Homo sapiens, 96 h incubation
[10] = tested on: pancreatic cancer cell line MIAPaCa-2; assay: Cytotoxicity assay (WST-8), MIAPaCa-2; type: cell-based; conditions: Homo sapiens, MIA PaCa-2, 96 h incubation
Procedure: as §2

[11] = cell marked (RRM1), read-out: Msi2 (Ki) (RRM1)
[12] = cell without (RRM1) mark, read-out: Msi2 (Ki)

SMILES | Ki [1] [µM] | Ki [2] [µM] | Ki [3, 11] [µM] | Ki [4] [µM] | IC50 [5] [µM] | Ki [3, 12] [µM] | IC50 [6] [µM] | IC50 [7] [µM] | IC50 [8] [µM] | IC50 [9] [µM] | IC50 [10] [µM]
O=C(/C=C/c1cc2cc(NC(=O)c3ccc(C(F)(F)F)cc3)ccc2s1)NO [KH-32] | > 20 | 0.51 | 2.64 | 4.87 | 2.62 |  |  |  |  |  | 
CC(C)(C)c1ccc(C(=O)Nc2ccc3sc(CCC(=O)O)cc3c2)cc1 [KH-22A, 3-(5-(4-(tert-Butyl)benzamido)benzo[b]thiophen-2-yl)propanoic acid] | > 20 | 3.83 |  | > 20 | 19.8 | > 20 |  |  |  |  | 
CN(C)c1ccc(C(=O)Nc2ccc3sc(CCC(=O)NO)cc3c2)cc1 [KH-38] | > 20 | 2.88 |  | > 20 | 25.9 | > 20 |  |  |  |  | 
O=C(O)/C=C/c1cc2cc(NC(=O)c3ccc(S(F)(F)(F)(F)F)cc3)ccc2s1 [KH-33A, (E)-3-(5-(4-(pentafluoro-λ^6-sulfanyl)benzamido)benzo[b]thiophen-2-yl)acrylic acid] | > 20 | 1.2 | 1.03 | 2.63 | 50.1 |  |  |  |  |  | 
CC(C)(C)c1ccc(C(=O)Nc2ccc3sc(/C=C/C(=O)O)cc3c2)cc1 [KH-19A, (E)-3-(5-(4-(tert-butyl)benzamido)benzo[b]thiophen-2-yl)acrylic acid] | > 20 | 0.97 | 0.28 | 2.24 | 72.1 |  | > 100 | 80.6 | 78.5 | > 100 | 56
CC(C)(C)c1ccc(C(=O)Nc2ccc3sc(CCC(=O)NO)cc3c2)cc1 [KH-22, 4-(tert-Butyl)-N-(2-(3-(hydroxyamino)-3-oxopropyl)benzo[b]thiophen-5-yl)benzamide] | > 20 | 0.83 |  | > 20 | 3.48 | > 20 |  |  |  |  | 
CC(C)(C)C(=O)Nc1ccc2sc(/C=C/C(=O)NO)cc2c1 [KH-20, (E)-N-hydroxy-3-(5-pivalamidobenzo[b]thiophen-2-yl)acrylamide] | > 20 | > 20 |  | > 20 |  | > 20 |  |  |  |  | 3.98
CC(C)(C)c1cccc(C(=O)Nc2ccc3sc(/C=C/C(=O)NO)cc3c2)c1 [KH-31, (E)-3-(tert-Butyl)-N-(2-(3-(hydroxyamino)-3-oxoprop-1-en-1-yl)benzo[b]thiophen-5-yl)benzamide] | 3 | 0.47 | 1.3 | 3.89 | 9.74 |  |  |  |  |  | 
CC(C)(C)c1cccc(C(=O)Nc2ccc3sc(/C=C/C(=O)O)cc3c2)c1 [KH-31A, (E)-3-(5-(3-(tert-Butyl)benzamido)benzo[b]thiophen-2-yl)acrylic acid] | > 20 | 2.27 | 1.36 | 4.6 | 95.3 |  |  |  |  |  | 
CN(C)c1ccc(C(=O)Nc2ccc3sc(CCC(=O)O)cc3c2)cc1 [KH-38A, 3-(5-(4-(Dimethylamino)benzamido)benzo[b]thiophen-2-yl)propanoic acid] | > 20 | > 20 |  | > 20 | > 100 | > 20 |  |  |  |  | 
O=C(O)CCc1cc2cc(NC(=O)c3ccc(S(F)(F)(F)(F)F)cc3)ccc2s1 [KH-34A, 3-(5-(4-(pentafluoro-λ^6-sulfanyl)benzamido)benzo[b]thiophen-2-yl)propanoic acid] | > 20 | 5.8 |  | > 20 | 48 | > 20 |  |  |  |  | 
CC(C)(C)c1ccc(C(=O)Nc2ccc3sc(CCC(=O)NN)cc3c2)cc1 [KH-22E, 4-(tert-butyl)-N-(2-(3-hydrazinyl-3-oxopropyl)benzo[b]thiophen-5-yl)benzamide] | > 20 | 1.06 |  | > 20 | 8.56 | > 20 |  |  |  |  | 
